The test system of one series is TNFR1. Put plainly: Human NP cell CRISPRi: TNFR1 knockdown by qRT-PCR. To be noted: human NP cells. It counts as cell-based. As for the experimental part:
Human NP Cell CRISPRi. […] Quantitative RT-PCR was performed to identify TNFR1 knockdown in these primary human NP cells. Additionally, flow-cytometry was performed to determine transduction efficiency in human NP cells.
In general terms: Real-time PCR tracks product formation cycle by cycle.

The subject of series [1] is TNFR1 signaling (NF-κB activity). Nature of the series: NF-κB activity assay in HEK293T cells dosed with TNF-α. Conditions: 0.15 ng/mL TNF-α, 24 hours. It counts as cell-based, human. As for the experimental part: Measurement of functional effects of epigenome editing based gene downregulation. NE-κB activity assays. HEK293T cells and hADMSCs were transduced with the earlier mentioned NF-κB reporter vector and analyzed for changes in NF-κB activity in response to dosing cells with TNF-α/IL-1β (RnD systems, ProSpec). To further describe, cells expressing the NF-κB reporter were plated in white 96-well plates (HEK293T cells at 25,000 cells/well and hADMSCs at 5000 cells/well) and allowed to attach overnight. The next day cells were dosed with the appropriate amounts of inflammatory cytokines (0, […], 1, and/or 10 ng/mL of TNF-α/IL-1β) for 24 hours. At 24 hours luminescence corresponding to NF-κB activity was measured in one set of cells using the bright glo assay (Promega) and cell number was measured on another set of cells under the same treatment using the real-time glo assay (Promega). Changes in NF-κB activity were quantified as a fold change in luminescence relative to the no dose control for each cell type, with NF-κB activity normalized to cell number.

As for “5′-AUAAGCGUCCGACACAUGAU-3′ (expressed or natural sequence) [TNFR1 gRNA 4, 82]”, the results for the TNFR1 knockdown in the series with TNFR1 (with dCas9-KRAB) and in the series with TNFR1 (with dCas9 alone) were 55% and “no knockdown”, respectively.

Turning to “5′-CAGUGUUGCAACAGCGGGAC-3′ (expressed or natural sequence) [TNFR1 gRNA 1, 79]”, the “NF-κB activity vs no dose control” value in series [1] is reported as “no significant increase in NF-κB activity”.

The record behind these values is US12410428B2, “RNA-guided transcriptional regulation and methods of using the same for the treatment of back pain” (University of Utah Research Foundation, priority 2018, dated 2025).
